Measured values from PubChem BioAssay AID1963970 (Molecular Pharmacology Branch, DTP, NCI, 2024).

Tested on: 931267-113-T-J1-PDC multicell spheroid viability
Assay: Anticancer human tumor 931267-113-T-J1-PDC patient-derived colon adenocarcinoma cell line growth inhibition [PI3K]
Settings: for IC50: curve of first compound; for viability, T/C: stronger effect = lower value
In short: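 Three cell types, namely tumor cells, endothelial cells and mesenchymal stem cells, formed each spheroid. Combinations with four PI3K inhibitors were screened at clinically achievable concentrations decreasing by half-log, and spheroid viability was recorded.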

[1] = second compound 0.0316 µM, first compound 0.0316 µM
[2] = second compound 0.0316 µM, first compound 0.1 µM
[3] = second compound 0.0316 µM, first compound 0.316 µM
[4] = second compound 0.0316 µM, first compound 1 µM
[5] = second compound 0.1 µM, first compound 0.0316 µM
[6] = second compound 0.1 µM, first compound 0.1 µM
[7] = second compound 0.1 µM, first compound 0.316 µM
[8] = second compound 0.1 µM, first compound 1 µM
[9] = second compound 0.316 µM, first compound 0.0316 µM
[10] = second compound 0.316 µM, first compound 0.1 µM
[11] = second compound 0.316 µM, first compound 0.316 µM
[12] = second compound 0.316 µM, first compound 1 µM
[13] = second compound 1 µM, first compound 0.0316 µM
[14] = second compound 1 µM, first compound 0.1 µM
[15] = second compound 1 µM, first compound 0.316 µM
[16] = second compound 1 µM, first compound 1 µM
[17] = second compound 3.16 µM, first compound 0.0316 µM
[18] = second compound 3.16 µM, first compound 0.1 µM
[19] = second compound 3.16 µM, first compound 0.316 µM
[20] = second compound 3.16 µM, first compound 1 µM
[21] = second compound 10 µM, first compound 0.0316 µM
[22] = second compound 10 µM, first compound 0.1 µM
[23] = second compound 10 µM, first compound 0.316 µM
[24] = second compound 10 µM, first compound 1 µM
[25] = second compound 0.0316 µM, first compound 3.16 µM
[26] = second compound 0.0316 µM, first compound 10 µM
[27] = second compound 0.1 µM, first compound 3.16 µM
[28] = second compound 0.1 µM, first compound 10 µM
[29] = second compound 0.316 µM, first compound 3.16 µM
[30] = second compound 0.316 µM, first compound 10 µM
[31] = second compound 1 µM, first compound 3.16 µM
[32] = second compound 1 µM, first compound 10 µM
[33] = second compound 3.16 µM, first compound 3.16 µM
[34] = second compound 3.16 µM, first compound 10 µM
[35] = second compound 10 µM, first compound 3.16 µM
[36] = second compound 10 µM, first compound 10 µM
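Also: viability read 7 days after compound addition.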

CCN1CCN(Cc2ccc(Nc3ncc(F)c(-c4cc(F)c5nc(C)n(C(C)C)c5c4)n3)nc2)CC1 + Cc1nc(NC(=O)N2CCCC2C(N)=O)sc1-c1ccnc(C(C)(C)C(F)(F)F)c1
IC50 (second compound 0.0316 µM): > 1 µM | IC50 (second compound 0.1 µM): > 1 µM | IC50 (second compound 0.316 µM): > 1 µM | IC50 (second compound 1 µM): > 1 µM | IC50 (second compound 3.16 µM): > 1 µM | IC50 (second compound 10 µM): > 1 µM | viability, T/C (second compound 0.0316 µM, first compound 0.00316 µM): 91.7% | viability, T/C (second compound 0.0316 µM, first compound 0.01 µM): 99.6% | viability, T/C [1]: 100% | viability, T/C [2]: 103% | viability, T/C [3]: 94.3% | viability, T/C [4]: 86.2% | viability, T/C (second compound 0.1 µM, first compound 0.00316 µM): 98% | viability, T/C (second compound 0.1 µM, first compound 0.01 µM): 97.1% | viability, T/C [5]: 102% | viability, T/C [6]: 96.5% | viability, T/C [7]: 84.6% | viability, T/C [8]: 84.5% | viability, T/C (second compound 0.316 µM, first compound 0.00316 µM): 91.2% | viability, T/C (second compound 0.316 µM, first compound 0.01 µM): 81.2% | viability, T/C [9]: 96.1% | viability, T/C [10]: 91.8% | viability, T/C [11]: 81% | viability, T/C [12]: 75.1% | viability, T/C (second compound 1 µM, first compound 0.00316 µM): 69.4% | viability, T/C (second compound 1 µM, first compound 0.01 µM): 83.1% | viability, T/C [13]: 79.7% | viability, T/C [14]: 77.5% | viability, T/C [15]: 71.5% | viability, T/C [16]: 62.4% | viability, T/C (second compound 3.16 µM, first compound 0.00316 µM): 71.4% | viability, T/C (second compound 3.16 µM, first compound 0.01 µM): 80.7% | viability, T/C [17]: 66.8% | viability, T/C [18]: 61.9% | viability, T/C [19]: 55.8% | viability, T/C [20]: 59.4% | viability, T/C (second compound 10 µM, first compound 0.00316 µM): 58.6% | viability, T/C (second compound 10 µM, first compound 0.01 µM): 57% | viability, T/C [21]: 50.1% | viability, T/C [22]: 43.3% | viability, T/C [23]: 50.4% | viability, T/C [24]: 57.2%

CNC(=O)c1ccc(N2C(=S)N(c3ccc(C#N)c(C(F)(F)F)c3)C(=O)C2(C)C)cc1F + Cc1nc(NC(=O)N2CCCC2C(N)=O)sc1-c1ccnc(C(C)(C)C(F)(F)F)c1
IC50 (second compound 0.0316 µM): > 10 µM | IC50 (second compound 0.1 µM): > 10 µM | IC50 (second compound 0.316 µM): > 10 µM | IC50 (second compound 1 µM): > 10 µM | IC50 (second compound 3.16 µM): > 10 µM | IC50 (second compound 10 µM): 3.66 µM | viability, T/C [1]: 112% | viability, T/C [2]: 85% | viability, T/C [3]: 95.4% | viability, T/C [4]: 105% | viability, T/C [25]: 101% | viability, T/C [26]: 93.5% | viability, T/C [5]: 94% | viability, T/C [6]: 105% | viability, T/C [7]: 98.7% | viability, T/C [8]: 105% | viability, T/C [27]: 99.5% | viability, T/C [28]: 98.5% | viability, T/C [9]: 92.9% | viability, T/C [10]: 75.9% | viability, T/C [11]: 87.9% | viability, T/C [12]: 80.5% | viability, T/C [29]: 89.3% | viability, T/C [30]: 76.5% | viability, T/C [13]: 89.6% | viability, T/C [14]: 66.4% | viability, T/C [15]: 73.9% | viability, T/C [16]: 85.1% | viability, T/C [31]: 83.5% | viability, T/C [32]: 76.2% | viability, T/C [17]: 71.2% | viability, T/C [18]: 64.5% | viability, T/C [19]: 73.8% | viability, T/C [20]: 62.5% | viability, T/C [33]: 77.2% | viability, T/C [34]: 67.5% | viability, T/C [21]: 59.7% | viability, T/C [22]: 54.2% | viability, T/C [23]: 56.2% | viability, T/C [24]: 53.3% | viability, T/C [35]: 56.4% | viability, T/C [36]: 42.2%

CNC(=O)c1ccc(N2C(=S)N(c3ccc(C#N)c(C(F)(F)F)c3)C(=O)C2(C)C)cc1F + CC(Nc1ncnc2nc[nH]c12)c1cc2cccc(Cl)c2c(=O)n1-c1ccccc1
IC50 (second compound 0.0316 µM): > 10 µM | IC50 (second compound 0.1 µM): > 10 µM | IC50 (second compound 0.316 µM): > 10 µM | IC50 (second compound 1 µM): > 10 µM | IC50 (second compound 3.16 µM): > 10 µM | IC50 (second compound 10 µM): > 10 µM | viability, T/C [1]: 107% | viability, T/C [2]: 96.7% | viability, T/C [3]: 113% | viability, T/C [4]: 97.2% | viability, T/C [25]: 111% | viability, T/C [26]: 109% | viability, T/C [5]: 108% | viability, T/C [6]: 101% | viability, T/C [7]: 104% | viability, T/C [8]: 104% | viability, T/C [27]: 101% | viability, T/C [28]: 103% | viability, T/C [9]: 103% | viability, T/C [10]: 104% | viability, T/C [11]: 100% | viability, T/C [12]: 107% | viability, T/C [29]: 115% | viability, T/C [30]: 103% | viability, T/C [13]: 102% | viability, T/C [14]: 103% | viability, T/C [15]: 96.6% | viability, T/C [16]: 102% | viability, T/C [31]: 117% | viability, T/C [32]: 109% | viability, T/C [17]: 100% | viability, T/C [18]: 98.9% | viability, T/C [19]: 92.4% | viability, T/C [20]: 103% | viability, T/C [33]: 96.5% | viability, T/C [34]: 104% | viability, T/C [21]: 99% | viability, T/C [22]: 97.9% | viability, T/C [23]: 93.9% | viability, T/C [24]: 96.1% | viability, T/C [35]: 102% | viability, T/C [36]: 84.4%
